What was measured:
[1] = Chemical stability in artificial gastric fluid (SGF without enzymes); settings: 10 μM in SGF without enzymes, pH=1.4, 37° C.
[2] = system: Mino (mantle cell lymphoma); assay: Antiproliferative activity, Mino cells (Alamar Blue); format: cell-based; settings: Homo sapiens
Protocol: (§1) Antiproliferative activity of BTK inhibitors was measured in cell-based bioassay on B-cells cultures: Mino (mantle cell lymphoma, ATCC® CRL-3000™), Z-138 (mantle cell lymphoma, ATCC® CRL-3001™) and DOHH2 (follicular lymphoma, Creative Bioarray CSC-C0219) using cell viability reagent Alamar Blue (Invitrogen, #DAL 1100). Cells were cultured in 10% FB S-supplemented (HyClone, #SH3008803/Gibco, #16140-071) RPMI-1640 (PanEco, #S330p) for at least 1 passage after thawing, washed with PBS and passaged in 96-well culture plates (Corning, #3599) with growth medium with 10% FBS (HyClone, #SH3008803/Gibco, #16140-071) and antibiotic (50 μg/ml of gentamicin (Biolot, #1.3.16))≈3*10^4 cells in 50 μl of medium per well.
(§2) The compounds were dissolved in DMSO and diluted with the assay medium to final concentrations ranging from […]. 150 μl of each diluted compound were then added to each well (final concentration of DMSO was less than 1%) and incubated at 37° C. in an incubator under 5% of CO2 for 72 h. After incubation, 20 μl of Alamar Blue reagent (Invitrogen, #DAL1100) were added to each well. The plates were shaked on an orbital shaker (Biosan, Latvia) and then incubated for 14-16 hours at 37° C. in the incubator.
(§3) The number of living cells were estimated, measuring the fluorescence signal at the excitation wavelength (REx) of 540 nm and the emission wavelength (λEm) of 590 nm on a microplate reader (Tecan Infinite M200Pro, Switzerland).
(§4) For each compound, IC50 was calculated using Magellan 7.2 software (Tecan, Switzerland) approximating experimental points by four-parameter logistic model with the optimization by Levenberg-Marquardt.

[3] = system: Z-138 (mantle cell lymphoma); assay: Antiproliferative activity, Z-138 cells (Alamar Blue); format: cell-based; settings: Homo sapiens
Protocol: as §1, §2, §3, §4

[4] = General cytotoxicity on HepG2 cells (CC50; therapeutic index CC50 HepG2/IC50 Mino); format: cell-based; settings: human, HepG2 cells (hepatocellular carcinoma), 72 hours, Alamar Blue
Protocol: (§5) The CC50 values were determined in the test for General cytotoxicity on HepG2 cells (hepatocellular carcinoma, ATCC® HB-8065™). 2*10^4 cells (in 50 μl) per well were seeded in 96-well plates (Corning, #3599) in DMEM medium (PanEco, #S420p), after 24 h of incubation 150 μl of candidate compounds were added to each well in the range of final concentrations from 200 μM to 4 μM and the plate was incubated in a total volume of 200 μl for 72 hours. Viability of the cells was assessed using Alamar Blue dye (Invitrogen, #DAL 1100). CC50 was determined similarly (table 10).
(§6) The relationship between toxic (CC50) and a therapeutic (IC50) effects of the dose is the therapeutic index, which can be expressed as the ratio between CC50 (HepG2) (general cytotoxicity of the candidate) and IC50 (Mino) (antiproliferative activity on the target cells): […]

[5] = system: HepG2 cells (hepatocellular carcinoma); assay: as above; format: cell-based; settings: therapeutic index
Protocol: as §5, §6

[6] = Table 10, 72 h, average of several tests
[7] = Table 10, average of several tests

C=CC(=O)N1CC(n2nc(-c3ccc(Oc4ccncc4)cc3)c3cncc(Cl)c32)C1 [BCD-BTK - 282, 1-(3-(7-chloro-3-(4-(pyridin-4-yloxy)phenyl)-1H-pyrazolo[4,3-c]pyridin-1-yl)azetidin-1-yl)prop-2-en-1-one]
Amount of substance in the sample in % (chemical stability) [1]: 100%

CC#CC(=O)N1CC[C@@H](Cn2nc(-c3ccc(C(=O)Nc4ccccn4)cc3)c3cncc(Cl)c32)C1 [BCD-BTK - 286, (R)-4-(1-((1-(but-2-ynoyl)pyrrolidin-3-yl)methyl)-7-chloro-1H-pyrazolo[4,3-c]pyridin-3-yl)-N-(pyridin-2-yl)benzamide]
Amount of substance in the sample in % (chemical stability) [1]: 100%

CC#CC(=O)N1CC[C@H](Cn2nc(-c3ccc(C(=O)Nc4ccccn4)cc3)c3cncc(Cl)c32)C1 [BCD-BTK - 287, (S)-4-(1-((1-(but-2-ynoyl)pyrrolidin-3-yl)methyl)-7-chloro-1H-pyrazolo[4,3-c]pyridin-3-yl)-N-(pyridin-2-yl)benzamide]
Amount of substance in the sample in % (chemical stability) [1]: 100%

C=CC(=O)N1CCC[C@@H](n2nc(-c3cnc(C(=O)Nc4cc(C(F)(F)CCC)ccn4)nc3)c3cncc(Cl)c32)C1 [BCD-BTK - 292, (R)-5-(1-(1-acryloylpiperidin-3-yl)-7-chloro-1H-pyrazolo[4,3-c]pyridin-3-yl)-N-(4-(1,1-difluorobutyl)pyridin-2-yl)pyrimidine-2-carboxamide]
Amount of substance in the sample in % (chemical stability) [1]: 100%

C=CC(=O)N1CCC[C@@H](n2nc(-c3cnc(C(=O)Nc4cc(C(F)(F)CC)ccn4)nc3)c3cncc(Cl)c32)C1 [BCD-BTK - 293, (R)-5-(1-(1-acryloylpiperidin-3-yl)-7-chloro-1H-pyrazolo[4,3-c]pyridin-3-yl)-N-(4-(1,1-difluoropropyl)pyridin-2-yl)pyrimidine-2-carboxamide]
Amount of substance in the sample in % (chemical stability) [1]: 98.4%

CC#CC(=O)N1CCC[C@@H](n2nc(-c3ccc(C(=O)Nc4ccccn4)cc3)c3c(N)ncc(Cl)c32)C1 [BCD-BTK - 295, (R)-4-(4-amino-1-(1-(but-2-ynoyl)piperidin-3-yl)-7-chloro-1H-pyrazolo[4,3-c]pyridin-3-yl)-N-(pyridin-2-yl)benzamide]
Amount of substance in the sample in % (chemical stability) [1]: 89.5%

C=CC(=O)N1CCC[C@@H](n2nc(-c3ccc(-n4ccc(=O)cc4)cc3)c3c(N)ncc(Cl)c32)C1 [BCD-BTK-9, (R)-1-(4-(1-(1-acryloylpiperidin-3-yl)-4-amino-7-chloro-1H-pyrazolo[4,3-c]pyridin-3-yl)phenyl)pyridin-4(1H)-one]
IC50 [2, 6]: 23.5 µM | IC50 [3, 6]: 44.1 µM | CC50 at 72 h [4, 7]: > 100 µM | CC50 (HepG2)/IC50 (Mino) ([5]; Table 10): >4.25 | Amount of substance in the sample in % (chemical stability) [1]: 100.0%

C=CC(=O)N1CCC[C@@H](n2nc(-c3ccc(-n4ccc(=O)cc4)cc3)c3c(Cl)c(O)cnc32)C1 [BCD-BTK-13, (R)-1-(4-(1-(1-acryloylpiperidin-3-yl)-4-chloro-5-hydroxy-1H-pyrazolo[3,4-b]pyridin-3-yl)phenyl)pyridin-4(1H)-one]
IC50 [2, 6]: 37.1 µM | IC50 [3, 6]: > 50 µM | CC50 at 72 h [4, 7]: > 100 µM | CC50 (HepG2)/IC50 (Mino) ([5]; Table 10): >2.70 | Amount of substance in the sample in % (chemical stability) [1]: 91.0%

C=CC(=O)N1CCC[C@@H](n2nc(-c3ccc(-n4ccc(=O)cc4)cc3)c3cncc(Cl)c32)C1 [BCD-BTK-30, (R)-1-(4-(1-(1-acryloylpiperidin-3-yl)-7-chloro-1H-pyrazolo[4,3-c]pyridin-3-yl)phenyl)pyridin-4(1H)-one]
IC50 [2, 6]: 15.6 µM | IC50 [3, 6]: 22.7 µM | CC50 at 72 h [4, 7]: 61.5 µM | CC50 (HepG2)/IC50 (Mino) ([5]; Table 10): 3.94 | Amount of substance in the sample in % (chemical stability) [1]: 97.7%

C=CC(=O)N1CCC[C@@H](n2nc(-c3ccc(C(=O)Nc4cccc(F)n4)cc3)c3cncc(Cl)c32)C1 [BCD-BTK-225, (R)-4-(1-(1-acryloylpiperidin-3-yl)-7-chloro-1H-pyrazolo[4,3-c]pyridin-3-yl)-N-(6-fluoropyridin-2-yl)benzamide]
Amount of substance in the sample in % (chemical stability) [1]: 100%

C=CC(=O)N1CCC[C@@H](n2nc(-c3ccc(C(=O)Nc4ccc(F)cn4)cc3)c3cncc(C#N)c32)C1 [BCD-BTK-227, (R)-4-(1-(1-acryloylpiperidin-3-yl)-7-cyano-1H-pyrazolo[4,3-c]pyridin-3-yl)-N-(5-fluoropyridin-2-yl)benzamide]
Amount of substance in the sample in % (chemical stability) [1]: 100%

C=CC(=O)N1CCC[C@@H](n2nc(-c3ccc(C(=O)Nc4cc(C(F)(F)F)ccn4)cc3)c3cncc(F)c32)C1 [BCD-BTK-245, (R)-4-(1-(1-acryloylpiperidin-3-yl)-7-fluoro-1H-pyrazolo[4,3-c]pyridin-3-yl)-N-(4-(trifluoromethyl)pyridin-2-yl)benzamide]
Amount of substance in the sample in % (chemical stability) [1]: 100%

C=CC(=O)N1CCC[C@@H](n2nc(-c3ccc(C(=O)Nc4ncccc4F)cc3)c3cncc(F)c32)C1 [BCD-BTK-249, (R)-4-(1-(1-acryloylpiperidin-3-yl)-7-fluoro-1H-pyrazolo[4,3-c]pyridin-3-yl)-N-(3-fluoropyridin-2-yl)benzamide]
IC50 [2, 6]: 28.8 µM | IC50 [3, 6]: > 50 µM | CC50 at 72 h [4, 7]: ~100 µM | CC50 (HepG2)/IC50 (Mino) ([5]; Table 10): >3.47

CC#CC(=O)N1CC[C@@H](n2nc(-c3ccc(C(=O)Nc4ccccn4)cc3)c3cncc(Cl)c32)C1 [BCD-BTK-262, (R)-4-(1-(1-(but-2-ynoyl)pyrrolidin-3-yl)-7-chloro-1H-pyrazolo[4,3-c]pyridin-3-yl)-N-(pyridin-2-yl)benzamide]
Amount of substance in the sample in % (chemical stability) [1]: 100%

CC#CC(=O)N1CC[C@H](n2nc(-c3ccc(C(=O)Nc4ccccn4)cc3)c3cncc(Cl)c32)C1 [BCD-BTK-271, (S)-4-(1-(1-(but-2-ynoyl)pyrrolidin-3-yl)-7-chloro-1H-pyrazolo[4,3-c]pyridin-3-yl)-N-(pyridin-2-yl)benzamide]
Amount of substance in the sample in % (chemical stability) [1]: 100%

C=CC(=O)N1CC[C@@H](n2nc(-c3ccc(C(=O)Nc4ccccn4)cc3)c3cncc(Cl)c32)C1 [BCD-BTK-275, (R)-4-(1-(1-acryloylpyrrolidin-3-yl)-7-chloro-1H-pyrazolo[4,3-c]pyridin-3-yl)-N-(pyridin-2-yl)benzamide]
Amount of substance in the sample in % (chemical stability) [1]: 100%

C=CC(=O)N1CC(Cn2nc(-c3ccc(C(=O)Nc4ccccn4)cc3)c3cncc(Cl)c32)C1 [BCD-BTK-276, 4-(7-chloro-1-{[1-(prop-2-enoyl)azetidin-3-yl]methyl}-1H-pyrazolo[4,3-c]pyridin-3-yl)-N-(pyridin-2-yl)benzamide]
Amount of substance in the sample in % (chemical stability) [1]: 100%

C=CC(=O)N1CCC[C@@H](Cn2nc(-c3ccc(C(=O)Nc4ccccn4)cc3)c3cncc(Cl)c32)C1 [BCD-BTK-279, (R)-4-(1-((1-acryloylpiperidin-3-yl)methyl)-7-chloro-1H-pyrazolo[4,3-c]pyridin-3-yl)-N-(pyridin-2-yl)benzamide]
Amount of substance in the sample in % (chemical stability) [1]: 100%

CC#CC(=O)N1CC(n2nc(-c3ccc(Oc4ccncc4)cc3)c3cncc(Cl)c32)C1 [BCD-BTK-281, 1-(3-(7-chloro-3-(4-(pyridin-4-yloxy)phenyl)-1H-pyrazolo[4,3-c]pyridin-1-yl)azetidin-1-yl)but-2-yn-1-one]
IC50 [2, 6]: 5.63 µM | IC50 [3, 6]: 4.67 µM | CC50 at 72 h [4, 7]: 15.8 µM | CC50 (HepG2)/IC50 (Mino) ([5]; Table 10): 2.81

C=CC(=O)N1CC(n2nc(-c3ccc(Oc4ccncc4)cc3)c3cncc(Cl)c32)C1 [BCD-BTK-282, 1-(3-(7-chloro-3-(4-(pyridin-4-yloxy)phenyl)-1H-pyrazolo[4,3-c]pyridin-1-yl)azetidin-1-yl)prop-2-en-1-one]
IC50 [2, 6]: 4.02 µM | IC50 [3, 6]: 4.3 µM | CC50 at 72 h [4, 7]: 9.45 µM | CC50 (HepG2)/IC50 (Mino) ([5]; Table 10): 2.35

C=CC(=O)N1CCC[C@@H](n2nc(-c3ccc(Oc4ccccc4)cc3)c3c(N)ncnc32)C1 [Ibrutinib, ibrutinib, reference compound]
IC50 ([2]; Table 11, 72 h): 9.18 µM | IC50 ([3]; Table 11, 72 h): 15.1 µM | CC50 at 72 h ([4]; Table 11): 54.9 µM | CC50 (HepG2)/IC50 (Mino) ([5]; Table 11): 5.98
